Measurements from the NIST ThermoML archive (doi:10.1021/acs.jced.8b00399).
± gives the expanded uncertainty stated by the source.

Settings: 99.6 kPa, Liquid; for viscosity: Capillary tube (Ostwald / Ubbelohde) method; for mass density: Vibrating tube method

SMILES: CNC(C)=O [N-methylacetamide]
- viscosity (308.15 K): 3.57 ± 0.044 mPa·s
- mass density (308.15 K): 946.01 ± 1.9 kg/m3
- viscosity (313.15 K): 3.152 ± 0.039 mPa·s
- mass density (313.15 K): 941.81 ± 1.9 kg/m3
- viscosity (318.15 K): 2.8 ± 0.035 mPa·s
- mass density (318.15 K): 937.59 ± 1.9 kg/m3
- viscosity (323.15 K): 2.496 ± 0.031 mPa·s
- mass density (323.15 K): 933.36 ± 1.9 kg/m3
- viscosity (328.15 K): 2.245 ± 0.028 mPa·s
- mass density (328.15 K): 929.17 ± 1.9 kg/m3
